Assay results reported in PubChem BioAssay AID256 (DTP/NCI, 2004).
Values joined by “and” are separate entries in the source; they are usually repeats but may differ in a detail not shown here. Equal values may be shown once. Inconclusive results and toxic doses are left out. The calls were made as follows: active = survival T/C of 150% or more; inactive = T/C below 125% in these data.

Tested on: CD2F1 mice, L1210 leukemia ip, survival T/C
Assay: NCI In Vivo Anticancer Drug Screen. Data for tumor model L1210 Leukemia (intraperitoneal) in CD2F1 (CDF1) mice
Settings: higher = longer survival
Method in brief: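 Transplantable tumor in mice; compound-treated vs vehicle-treated groups. Read-out = treated/control ratio of the measured endpoint.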

[1] = endpoint: mean survival time, dose: 100.0 mg/kg/injection, schedule: Q04DX003 (ip), vehicle: saline with Tween-80
[2] = endpoint: mean survival time, dose: 200.0 mg/kg/injection, schedule: Q04DX003 (ip), vehicle: saline with Tween-80
[3] = endpoint: mean survival time, dose: 12.5 mg/kg/injection, schedule: Q01DX009 (ip), vehicle: saline with Tween-80
[4] = endpoint: mean survival time, dose: 25.0 mg/kg/injection, schedule: Q01DX009 (ip), vehicle: saline with Tween-80
[5] = endpoint: mean survival time, dose: 100.0 mg/kg/injection, schedule: Q01DX009 (ip), vehicle: saline with Tween-80
[6] = endpoint: mean survival time, dose: 200.0 mg/kg/injection, schedule: Q01DX009 (ip), vehicle: saline with Tween-80
[7] = endpoint: mean survival time, dose: 400.0 mg/kg/injection, schedule: Q01DX009 (ip), vehicle: saline with Tween-80

Measured: T/C

CC(=O)OCC1(OC2OC(CNC(=O)N(C)N=O)C(OC(C)=O)C(OC(C)=O)C2OC(C)=O)OC(CNC(=O)N(C)N=O)C(OC(C)=O)C1OC(C)=O (stereo not drawn)
inactive: endpoint: mean survival time, dose: 12.5 mg/kg/injection, schedule: Q01DX009 (ip), vehicle: other 102 % of control | endpoint: mean survival time, dose: 25.0 mg/kg/injection, schedule: Q01DX009 (ip), vehicle: other 102 % of control | endpoint: mean survival time, dose: 50.0 mg/kg/injection, schedule: Q01DX009 (ip), vehicle: other 109 % of control | endpoint: mean survival time, dose: 100.0 mg/kg/injection, schedule: Q01DX009 (ip), vehicle: other 105 % of control | endpoint: mean survival time, dose: 200.0 mg/kg/injection, schedule: Q01DX009 (ip), vehicle: other 119 % of control

N#Cc1c(F)c(F)c(NN)c(F)c1F
inactive: [1] 93 % of control | [2] 89 % of control

C(#Cc1ccccn1)c1ccccn1.[Pt].c1ccc([PH+](c2ccccc2)c2ccccc2)cc1.c1ccc([PH+](c2ccccc2)c2ccccc2)cc1
inactive: endpoint: median survival time, dose: 3.13 mg/kg/injection, schedule: Q04DX003 (ip), vehicle: distilled water + Tween-80 104 % of control | endpoint: median survival time, dose: 6.25 mg/kg/injection, schedule: Q04DX003 (ip), vehicle: distilled water + Tween-80 105 % of control | endpoint: median survival time, dose: 12.5 mg/kg/injection, schedule: Q04DX003 (ip), vehicle: distilled water + Tween-80 100 % of control | endpoint: median survival time, dose: 25.0 mg/kg/injection, schedule: Q04DX003 (ip), vehicle: distilled water + Tween-80 97 % of control | endpoint: median survival time, dose: 50.0 mg/kg/injection, schedule: Q04DX003 (ip), vehicle: distilled water + Tween-80 96 % of control | endpoint: median survival time, dose: 100.0 mg/kg/injection, schedule: Q04DX003 (ip), vehicle: distilled water + Tween-80 94 % of control

CC(=O)OCC1OC(N2C(=O)/C(=C/c3ccc([N+](=O)[O-])cc3)SC2=S)C(OC(C)=O)C(OC(C)=O)C1OC(C)=O (stereo not drawn)
inactive: endpoint: mean survival time, dose: 0.78 mg/kg/injection, schedule: Q01DX005 (ip), vehicle: distilled water + Tween-80 96 % of control | endpoint: mean survival time, dose: 1.56 mg/kg/injection, schedule: Q01DX005 (ip), vehicle: distilled water + Tween-80 93 % of control | endpoint: mean survival time, dose: 3.13 mg/kg/injection, schedule: Q01DX005 (ip), vehicle: distilled water + Tween-80 93 % of control | endpoint: mean survival time, dose: 6.25 mg/kg/injection, schedule: Q01DX005 (ip), vehicle: distilled water + Tween-80 90 % of control | endpoint: mean survival time, dose: 12.5 mg/kg/injection, schedule: Q01DX005 (ip), vehicle: distilled water + Tween-80 93 % of control

CCCCCCCCCCNCCS
inactive: endpoint: mean survival time, dose: 5.0 mg/kg/injection, schedule: Q01DX009 (ip), vehicle: saline with Tween-80 104 % of control | endpoint: mean survival time, dose: 20.0 mg/kg/injection, schedule: Q01DX009 (ip), vehicle: saline with Tween-80 93 % of control

Cc1ccc(NNC(N)=O)cc1
inactive: endpoint: mean survival time, dose: 25.0 mg/kg/injection, schedule: Q01DX001 (ip), vehicle: Klucel (hydroxypropylcellulose) (HPC) 104 % of control | endpoint: mean survival time, dose: 50.0 mg/kg/injection, schedule: Q01DX001 (ip), vehicle: Klucel (hydroxypropylcellulose) (HPC) 93 % of control | endpoint: mean survival time, dose: 100.0 mg/kg/injection, schedule: Q01DX001 (ip), vehicle: Klucel (hydroxypropylcellulose) (HPC) 89 % of control

C[CH2][Sn]1([CH2]C)[O]OC(c2ccccc2)[O]1 (stereo not drawn)
inactive: endpoint: mean survival time, dose: 0.78 mg/kg/injection, schedule: Q01DX009 (ip), vehicle: saline with Tween-80 106 % of control | endpoint: mean survival time, dose: 1.56 mg/kg/injection, schedule: Q01DX009 (ip), vehicle: saline with Tween-80 96 % of control | endpoint: mean survival time, dose: 3.12 mg/kg/injection, schedule: Q01DX009 (ip), vehicle: saline with Tween-80 98 % of control | endpoint: mean survival time, dose: 6.25 mg/kg/injection, schedule: Q01DX009 (ip), vehicle: saline with Tween-80 106 % of control | [3] 112 % of control

COc1ccc(N=C(N)N=C(N)N)cc1
inactive: [4] 102 % of control | endpoint: mean survival time, dose: 50.0 mg/kg/injection, schedule: Q01DX009 (ip), vehicle: saline with Tween-80 96 % of control | [5] 106 % of control

CN1C2CCC1C(CCl)C(O)C2 (stereo not drawn)
inactive: endpoint: mean survival time, dose: 50.0 mg/kg/injection, schedule: Q01DX009 (ip), vehicle: saline 97 % of control | endpoint: mean survival time, dose: 100.0 mg/kg/injection, schedule: Q01DX009 (ip), vehicle: saline 104 % of control | endpoint: mean survival time, dose: 200.0 mg/kg/injection, schedule: Q01DX009 (ip), vehicle: saline 101 % of control

O=C(NC1CCCCC1)OCc1c(COC(=O)NC2CCCCC2)c(-c2ccc(Cl)c(Cl)c2)n2c1CCC2
inactive: [3] 119 % of control and 112 % of control | [4] 112 % of control | [5] 122 % of control | [7] 121 % of control and 97 % of control
active: [6] 151 % of control and 157 % of control

NC(=O)c1c(F)cccc1Cl
inactive: [5] 102 % of control | [1] 101 % of control | [6] 105 % of control | [2] 98 % of control | [7] 102 % of control | endpoint: mean survival time, dose: 400.0 mg/kg/injection, schedule: Q04DX003 (ip), vehicle: saline with Tween-80 106 % of control

COC(=O)CC1C2CCc3cc(OC)ccc3C2CCC1(C)C(=O)OC (stereo not drawn)
inactive: [5] 97 % of control | [6] 101 % of control | [7] 94 % of control
